Reference: patent publication US5677322A, “Maillard reaction inhibitor” (Otsuka Pharmaceutical Co., Ltd., priority 1993, dated 1997)

test system: Lysozyme; test: Inhibition of Maillard reaction: suppression of lysozyme dimer formation (lysozyme + fructose, SDS-PAGE); type: biochemical; settings: inhibition ratio of test compound to aminoguanidine (positive control); lysozyme 10 mg/ml, fructose 100 mM, 0.2M sodium phosphate pH 7.4, 37° C., 3 days; dimer amount by SDS-PAGE
Experimental: Lysozyme and fructose were dissolved in a buffer solution of 0.2M sodium phosphate (pH 7.4) to respectively give concentrations of 10 mg/ml and 100 mM. After incubating at 37° C. for 3 days, a definite amount of the mixture was taken out and electrophoresed with the use of SDS-PAGE. After the completion of the electrophoresis, the gel was stained with 0.2% Coomassie Brilliant Blue R-250 and the amount of the dimer thus formed was determined.
Each of the test compounds was added before the initiation of the incubation and the effect of suppressing the formation of the dimer was examined at various concentrations, whereby the IC50 value was obtained. As a positive control, aminoguanidine, which is a known glycation inhibitor, was employed and the inhibition ratio of the test compound to aminoguanidine (IC50 of aminoguanidine/IC50 of test compound) was calculated.

Row | Compound | IC50 of aminoguanidine/IC50 of test compound
1 | 2-Isopropylidenehydrazono-5-[N-(2-methoxycarbonyl-4-methylphenyl)carbamoylmethyl]imidazolidin-4-one [Test compound 96] | 3.9
2 | 5-(N-isopropylcarbamoylmethyl)-2-isopropylidenehydrazonothiazolidin-4-one [Test compound 31] | 0.6
3 | 5-{N-[1-carboxy-2-(4-benzyloxyphenyl)ethyl]carbamoylmethyl}-2-isopropylidenehydrazonothiazolidin-4-one [Test compound 101] | 1.5
4 | CC(C)=NN=C1NC(=O)C(C)N1 (stereo not shown) [Test compound 2, 2-Isopropylidenehydrazono-5-methylimidazolidin-4-one] | 2.8
5 | 2-Cyclohexylmethylenehydrazono-5-(N-phenylcarbamoylmethyl)thiazolidin-4-one [Test compound 83] | 0.6
6 | 2-Isopropylidenehydrazono-5(R)-(N-phenylcarbamoylmethyl)thiazolidin-4-one [Test compound 109] | 2.8
7 | CC(C)=NN=C1NC(=O)C(Cc2ccc(OCc3c(Cl)cccc3Cl)cc2)N1 (stereo not shown) [Test compound 5, 5-[4-(2,6-Dichlorobenzyloxy)benzyl]-2-isopropylidenehydrazonoimidazolidin-4-one] | 8.0
8 | CC(C)=NN=C1NC(=O)C(CC(=O)NC(C)c2ccccc2)N1 (stereo not shown) [Test compound 73, 2-Isopropylidenehydrazono-5-[N-(1-phenylethyl)carbamoylmethyl]imidazolidin-4-one] | 1.3
9 | COc1ccc(NC(=O)CC2SC(=NN=C(C)C)NC2=O)c(C)c1 (stereo not shown) [Test compound 116, 2-Isopropylidenehydrazono-5-[N-(4-methoxy-2-methylphenyl)carbamoylmethyl]thiazolidin-4-one] | 7.3
10 | 2-Isopropylidenehydrazino-4-methylthiazole [Test compound 23] | 3.5
11 | COc1cc(NC(=O)CC2SC(=NN=C(C)C)NC2=O)c(C(=O)O)cc1OC (stereo not shown) [Test compound 114, 5-[N-(2-carboxy-4,5-dimethoxyphenyl)carbamoylmethyl]-2-isopropylidenehydrazonothiazolidin-4-one] | 5.4
12 | COc1ccc(NC(=O)CC2SC(=NN=C(C)C)NC2=O)cc1OC (stereo not shown) [Test compound 90, 5-[N-(3,4-dimethoxyphenyl)carbamoylmethyl]-2-isopropylidenehydrazonothiazolidin-4-one] | 42
13 | CC(C)=NN=C1NC(=O)C(c2ccc(O)cc2)N1 (stereo not shown) [Test compound 7, 5-(4-Hydroxyphenyl)-2-isopropylidenehydrazonoimidazolidin-4-one] | 1.1
14 | 5-(N-ethoxycarbonylmethylcarbamoylmethyl)-2-isopropylidenehydrazonothiazolidin-4-one [Test compound 19] | 2.5
15 | CCOC(=O)CN1C(=O)C(CC(=O)O)SC1=NN=C(C)C (stereo not shown) [Test compound 20, 5-Carboxymethyl-3-ethoxycarbonylmethyl-2-isopropylidenehydrazonothiazolidin-4-one] | 3.0
16 | CC(C)=NN=C1NC(=O)C(Cc2ccc(OCc3ccccc3)cc2)N1 (stereo not shown) [Test compound 1, 5-(4-Benzyloxybenzyl)-2-isopropylidenehydrazonoimidazolidin-4-one] | 3.6
17 | CC(C)=NN=C1NC(=O)C(CC(=O)Nc2ccc(F)cc2C(=O)O)S1 (stereo not shown) [Test compound 117, 5-[N-(2-carboxy-4-fluorophenyl)carbamoylmethyl]-2-isopropylidenehydrazonothiazolidin-4-one] | 7.0
18 | CC(C)=NN=C1NC(=O)C(Cc2ccc(OCc3cccs3)cc2)N1 (stereo not shown) [Test compound 36, 2-Isopropylidenehydrazono-5-[4-(2-thienylmethoxy)benzyl]imidazolidin-4-one] | 3.5
19 | 5-[N-(4-bromophenyl)carbamoylmethyl]-2-isopropylidenehydrazonothiazolidin- 4-one [Test compound 56] | 10.2
20 | COC(=O)c1c(F)cccc1NC(=O)CC1SC(=NN=C(C)C)NC1=O (stereo not shown) [Test compound 118, 5-[N-(3-fluoro-2-methoxycarbonylphenyl)carbamoylmethyl]-2-isopropylidenehydrazonothiazolidin-4-one] | 6.1
21 | 5-[N-(4-carboxyphenyl)carbamoylmethyl]-2-isopropylidenehydrazonothiazolidin-4-one [Test compound 16] | 3.1
22 | CC(C)=NN=C1NC(=O)C(CC(=O)O)N1 (stereo not shown) [Test compound 45, 5-Carboxymethyl-2-isopropylidenehydrazonoimidazolidin-4-one] | 4.8
23 | 4-[4-(4-Chlorobenzyloxy)phenyl]-2-isopropylidenehydrazinothiazole [Test compound 27] | 3.1
24 | 5-[N-(5-carboxy-2-methylphenyl)carbamoylmethyl]-2-isopropylidenehydrazonothiazolidin-4-one [Test compound 91] | 1.6
25 | CC(C)=NN=C1NC(=O)C(CC(=O)N(C)c2ccccc2)S1 (stereo not shown) [Test compound 65, 2-Isopropylidenehydrazono-5-(N-methyl-N-phenylcarbamoylmethyl)thiazolidin-4-one] | 6.8
26 | 2-Isopropylidenehydrazono-5-[N-(1-naphthyl)carbamoylmethyl]thiazolidin-4-one [Test compound 59] | 0.8

More lines, now with the values ahead:

Row | IC50 of aminoguanidine/IC50 of test compound | Compound
27 | 1.2 | CCOC(=O)c1ccc(NC(=O)CC2SC(=NN=C(C)C)NC2=O)cc1 (stereo not shown) [Test compound 15, 5-[N-(4-ethoxycarbonylphenyl)carbamoylmethyl]-2-isopropylidenehydrazonothiazolidin-4-one]
28 | 11.0 | CC(C)=NN=C1NC(=O)C(Cc2ccc(OCc3cccnc3)cc2)S1 (stereo not shown) [Test compound 48, 2-Isopropylidenehydrazono-5-[4-(3-pyridylmethoxy)benzyl]thiazolidin-4-one]
29 | 4.2 | 5-[N-(3-ethoxycarbonylphenyl)carbamoylmethyl]-2-isopropylidenehydrazonothiazolidin-4-one [Test compound 105]
30 | 0.8 | CC(C)=NN=C1NC(=O)C(Cc2ccc(OCC3CCCCC3)cc2)N1 (stereo not shown) [Test compound 35, 5-[4-(Cyclohexylmethyloxy)benzyl]-2-isopropylidenehydrazonoimidazolidin-4-one]
31 | 7.9 | 2-(4-Acetoamidobenzenesulfonohydrazono)-5-(4-benzyloxybenzyl)imidazolidin- 4-one [Test compound 76]
32 | 4.8 | CC(C)=NN=C1NC(=O)C(Cc2ccc(O)cc2)N1 (stereo not shown) [Test compound 4, 5-(4-Hydroxybenzyl)-2-isopropylidenehydrazonoimidazolidin-4-one]
33 | 55 | CC(C)=NN=C1NC(=O)C(CC(=O)Nc2ccccc2)S1 (stereo not shown) [Test compound 32, 2-isopropylidenehydrazono-5-(N-phenylcarbamoylmethyl)thiazolidin-4-one]
34 | 0.94 | 5-[N-(2-carboxyphenyl)carbamoylmethyl]-2-isopropylidenehydrazonothiazolidin-4-one [Test compound 92]
35 | 1.3 | CC(C)=NN=C1NC(Cc2ccc(O)cc2)C(=O)N1Cc1ccccc1 (stereo not shown) [Test compound 9, 3-Benzyl-5-(4-hydroxybenzyl)-2-isopropylidenehydrazonoimidazolidin-4-one]
36 | 2.2 | O=C1NC(=NN=C2CCCC2)NC1Cc1ccc(OCc2ccccc2)cc1 (stereo not shown) [Test compound 77, 2-Cyclopentylidenehydrazono-5-(4-benzyloxybenzyl)imidazolidin-4-one]
37 | 53 | 2-Isopropylidenehydrazino-4-(3-pyridyl)thiazole [Test compound 89]
38 | 5.4 | CC(C)=NN=C1NC(=O)C(Cc2ccc(Sc3ccccc3)cc2)N1 (stereo not shown) [Test compound 10, 2-Isopropylidenehydrazono-5-(4-phenylthiobenzyl)imidazolidin-4-one]
39 | 57 | CC(C)=NN=C1NC(=O)C(CCCCNC(=O)OCc2ccccc2)N1 (stereo not shown) [Test compound 62, 5-(4-Benzyloxycarbonylaminobutyl)-2-isopropylidenehydrazonoimidazolidin-4-one]
40 | 1.5 | O=C1NC(=NNS(=O)(=O)c2ccc(Br)cc2)NC1Cc1ccc(OCc2ccccc2)cc1 (stereo not shown) [Test compound 75]
41 | 4.2 | 5-[N-(2-carboxy-4-methylphenyl)carbamoylmethyl]-2-isopropylidenehydrazonothiazolidin-4-one [Test compound 54]
42 | 7.0 | CC(C)=NN=C1NC(=O)C(CC(=O)NC(C)c2ccccc2)S1 (stereo not shown) [Test compound 72, 2-Isopropylidenehydrazono-5-[N-(1-phenylethyl)carbamoylmethyl]thiazolidin-4-one]
43 | 1.1 | 2-Isopropylidenehydrazono-5-(N-morpholinocarbamoylmethyl)thiazolidin-4-one [Test compound 69]
